From ChEMBL document CHEMBL1128443, “Synthesis and structure-activity relationships of phenylenebis(methylene)-linked bis-tetraazamacrocycles that inhibit HIV replication. Effects of macrocyclic ring size and substituents on the aromatic linker” (J Med Chem, 1995)

Columns and labels:
MT4 [1] = test: Concentration required to reduce the viability of mock-infected MT-4 cells; format: functional, Homo sapiens
[2] = tested on: Human immunodeficiency virus 1; test: Concentration required to protect the virus infected cells against viral cytopathicity was measured on HIV-1(IIIB) virus strain in MT-4 cells; format: functional, organism-based, MT4
[3] = tested on: Human immunodeficiency virus 2; test: Concentration required to protect the virus infected cells against viral cytopathicity was measured on HIV-2(ROD) virus strain in MT-4 cells; format: functional, organism-based, MT4
MT4 [4] = details: Homo sapiens
[5] = Human immunodeficiency virus 1, MT4
[6] = Human immunodeficiency virus 2, MT4
[7] = mt4, tested as the Zn salt or complex

Row | EC50 [2, 5] [µM] | EC50 [3, 6] [µM] | Compound | CC50 (MT4 [1]; Homo sapiens, MT4) [µM] | further results
1 | 16.7 | 71.5 | c1cc(CN2CCCNCCCNCCCNCCC2)cc(CN2CCCNCCCNCCCNCCC2)c1 | 193 | –
2 | 0.138 | 0.246 | Brc1c(CN2CCCNCCNCCCNCC2)cccc1CN1CCCNCCNCCCNCC1 | > 144 | –
3 | 9.13 | 13.7 | c1cc(CN2CCCNCCCNCCCNCCC2)ccc1CN1CCCNCCCNCCCNCCC1 | 48 | –
4 | 0.0079 | 0.0079 | Fc1c(F)c(CN2CCCNCCNCCCNCC2)c(F)c(F)c1CN1CCCNCCNCCCNCC1 | 47 | –
5 | 0.0042 | – | c1cc(CN2CCCNCCNCCCNCC2)ccc1CN1CCCNCCNCCCNCC1 [listing 1 of 2 here] | > 421 | –
6 | – | – | 1,1'-[1,4-phenylenebis(methylene)]bis[1,4,8,11-tetraazacyclotetradecane] Palladium Diperchlorate Tetrahydrate (4H2O) [listing 1 of 2 here] | – | EC50 ([2]; mt4): 31.5 µM; EC50 ([3]; mt4): 59.3 µM
7 | – | – | 1,1'-[1,4-phenylenebis(methylene)]bis[1,4,8,11-tetraazacyclotetradecane]copper Heptahydrate (7H2O) [listing 1 of 2 here] | – | EC50 ([2]; mt4): 0.0181 µM; EC50 ([3]; mt4): 0.0272 µM
8 | 0.0337 | 0.0422 | c1cc(CN2CCCNCCNCCCNCC2)cc(CN2CCCNCCNCCCNCC2)c1 | > 421 | –
9 | 0.167 | 0.234 | c1cc(CN2CCNCCCNCCNCC2)ccc1CN1CCNCCCNCCNCC1 | > 208 | –
10 | 0.065 | 0.0731 | O=[N+]([O-])c1cc(CN2CCCNCCNCCCNCC2)ccc1CN1CCCNCCNCCCNCC1 | > 203 | –
11 | 1.67 | 2.01 | c1cc(CN2CCCNCCCNCCNCCC2)ccc1CN1CCCNCCCNCCNCCC1 | 171 | –
12 | 0.0408 | 0.0618 | c1cc(CN2CCNCCCNCCNCC2)cc(CN2CCNCCCNCCNCC2)c1 | > 184 | –
13 | 0.0347 | 0.0734 | Fc1c(CN2CCCNCCNCCCNCC2)cccc1CN1CCCNCCNCCCNCC1 | > 201 | –
14 | – | – | 1,1'-[1,4-phenylenebis(methylene)]bis[1,4,8,11-tetraazacyclotetradecane]copper Heptahydrate (7H2O) [listing 2 of 2 here] | – | CC50 (MT4 [4]): > 201 µM
15 | 0.0107 | 0.0025 | Clc1cc(CN2CCCNCCNCCCNCC2)c(Cl)cc1CN1CCCNCCNCCCNCC1 | 58 | –
16 | 0.323 | 0.645 | c1cc(CN2CCCNCCNCCNCCC2)cc(CN2CCCNCCNCCNCCC2)c1 | > 403 | –
17 | 2.43 | 11.6 | c1cc(CN2CCCNCCNCCCNCC2)ccc1CN1CCCNCCCNCCCNCCC1 | > 209 | –
18 | 0.0079 | 0.0556 | c1cc(CN2CCCNCCNCCCNCC2)ccc1CN1CCCNCCNCCNCCC1 | > 397 | –
19 | 0.106 | 0.08 | c1ccc(-c2cc(CN3CCCNCCNCCCNCC3)ccc2CN2CCCNCCNCCCNCC2)cc1 | > 198 | –
20 | 0.403 | 14.5 | c1cc(CCCN2CCCNCCNCCCNCC2)ccc1CCCN1CCCNCCNCCCNCC1 | 283 | –

Row | EC50 [2, 5] [µM] | EC50 [3, 6] [µM] | Compound | CC50 (MT4 [1]; Homo sapiens, MT4) [µM] | further results
21 | 1.36 | 3.13 | c1ccc(CN2CCCNCCNCCCNCC2)c(CN2CCCNCCNCCCNCC2)c1 | > 168 | –
22 | 0.0058 | 0.0066 | COc1cc(CN2CCCNCCNCCCNCC2)c(OC)cc1CN1CCCNCCNCCCNCC1 | > 206 | –
23 | 0.0253 | 0.059 | c1cc(CN2CCCNCCNCCNCCC2)ccc1CN1CCCNCCNCCNCCC1 | > 421 | –
24 | 0.506 | 0.674 | c1cc(CC2CNCCNCCCNCCNC2)ccc1CC1CNCCNCCCNCCNC1 | 406 | –
25 | 0.0406 | 0.0569 | O=[N+]([O-])c1cc(CN2CCCNCCNCCCNCC2)cc(CN2CCCNCCNCCCNCC2)c1 | 44 | –
26 | 0.0061 | 0.0035 | Brc1cc(CN2CCCNCCNCCCNCC2)ccc1CN1CCCNCCNCCCNCC1 | > 203 | –
27 | 1.42 | 1.15 | Cc1ccc(CN2CCCNCCNCCCNCC2)cc1 | > 324 | –
28 | 2.72 | 11.7 | c1cc(CN2CCCNCCCNCCNCCC2)cc(CN2CCCNCCCNCCNCCC2)c1 | > 190 | –
29 | 0.0843 | 0.759 | c1cc(CN2CCCNCCNCCNCCC2)cc(CN2CCCNCCNCCCNCC2)c1 | > 421 | –
30 | 0.373 | 0.711 | NCCCNCCNCCCNCc1ccc(CN2CCCNCCNCCCNCC2)cc1 | > 444 | –
31 | – | – | c1cc(CN2CCCNCCNCCCNCC2)ccc1CN1CCCNCCNCCCNCC1 [listing 2 of 2 here] | – | CC50 (MT4 [1]; tested as the Zn salt or complex): > 251 µM; EC50 [2, 7]: 0.0033 µM; EC50 [3, 7]: 0.0024 µM
32 | 7.79 | 14.6 | CCN1CCCN(CC)CCN(Cc2ccc(CN3CCCN(CC)CCN(CC)CCCN(CC)CC3)cc2)CCCN(CC)CC1 | > 341 | –
33 | 0.529 | 1.96 | Clc1c(Cl)c(CN2CCCNCCNCCCNCC2)c(Cl)c(CN2CCCNCCNCCCNCC2)c1Cl | 9 | –
34 | 0.0845 | 0.0538 | Brc1cc(CN2CCCNCCNCCCNCC2)cc(CN2CCCNCCNCCCNCC2)c1 | > 192 | –
35 | 14.9 | 69.7 | c1cc(CCN2CCCNCCNCCCNCC2)ccc1CCN1CCCNCCNCCCNCC1 | > 201 | –
36 | 0.318 | 3.18 | c1cc(CN2CCCNCCNCCNCCC2)ccc1CN1CCCNCCCNCCCNCCC1 | 101 | –
37 | – | – | 1,1'-[1,4-phenylenebis(methylene)]bis[1,4,8,11-tetraazacyclotetradecane] Palladium Diperchlorate Tetrahydrate (4H2O) [listing 2 of 2 here] | – | CC50 (MT4 [4]): > 210 µM
38 | 0.0064 | 0.0011 | Cc1cc(CN2CCCNCCNCCCNCC2)c(C)cc1CN1CCCNCCNCCCNCC1 | > 208 | –
39 | 0.206 | 0.0246 | c1ccc(-c2cc(CN3CCCNCCNCCCNCC3)cc(CN3CCCNCCNCCCNCC3)c2)cc1 | > 198 | –

Row | Compound | EC50 [2, 5] [µM] | EC50 [3, 6] [µM] | CC50 (MT4 [1]; Homo sapiens, MT4) [µM] | further results
40 | c1cc(CN2CCNCCNCCNCC2)cc(CN2CCNCCNCCNCC2)c1 | 0.0751 | 0.536 | 20 | –
41 | c1cc(CN2CCNCCNCCNCC2)ccc1CN1CCNCCNCCNCC1 | 0.322 | 2.36 | 55 | –
42 | C1CNCCNCCCNCCNC1 | 399 | 150 | > 1250 | –
